What all share (type): cell-based, human
The test system of one series is H69. As to the kind of experiment: Cellular proliferation assay (ATP-Lite), H69 cells. The settings on record: Table 6. Here is the method:
For the purpose of assessing the gene modulation ability of the oligonucleotides of the present invention, the effect of their administration on cell viability was determined.
For this purpose 5×10^3 cells per well were seeded into 96-well cell culture plates (experiments conducted in triplicate) with 100 μl of OPTI-MEM (GIBCO BRL) medium containing 4% FBS and 2 mM of L-glutammine.
The PNA oligonucleotides were administered at different concentrations (1 μM-2.5 μM-5 μM-10 μM) in order to observe a dose-effect relationship.
The viability of the treated cells was determined at 48, 72, 96 and 168 hours after treatment.
Cell viability was assessed by means of an ATP-Lite assay (Luminescence ATP Detection Assay System, PerkinElmer) and is reported as the ratio between the average signal of the treated wells compared to the average value of the wells of untreated control cells. The cells were processed following the instructions provided with the kit.
The assays were performed on the same cell lines used to determine the levels of the MYCN gene messenger and listed in the paragraph: Treatments with Oligonucleotides—QT-PCR.
The PNAs having SEQ ID NO: 1-12 were also tested on different cell lines which overexpress MYCN (Kelly, SKNBE2c, RH30, WiT49, WERI-Rb1 1 and H69). The results are shown in Table 6 and confirm the selectivity and specificity of the inhibition effect of the PNAs on the product of protein translation of the MYCN gene.
The ability of the tested oligonucleotides to inhibit the messenger of the gene of interest was measured and the proliferative capacity of the cells following administration of the oligonucleotides was also assessed.

For another series, the system named is WiT49. The series can be described thus: Cellular proliferation assay (ATP-Lite), WiT49 cells. To be noted: Table 6. The protocol: For the purpose of assessing the gene modulation ability of the oligonucleotides of the present invention, the effect of their administration on cell viability was determined. For this purpose 5×10^3 cells per well were seeded into 96-well cell culture plates (experiments conducted in triplicate) with 100 μl of OPTI-MEM (GIBCO BRL) medium containing 4% FBS and 2 mM of L-glutammine. The PNA oligonucleotides were administered at different concentrations (1 μM-2.5 μM-5 μM-10 μM) in order to observe a dose-effect relationship. The viability of the treated cells was determined at 48, 72, 96 and 168 hours after treatment. Cell viability was assessed by means of an ATP-Lite assay (Luminescence ATP Detection Assay System, PerkinElmer) and is reported as the ratio between the average signal of the treated wells compared to the average value of the wells of untreated control cells. The cells were processed following the instructions provided with the kit. The assays were performed on the same cell lines used to determine the levels of the MYCN gene messenger and listed in the paragraph: Treatments with Oligonucleotides-QT-PCR. The PNAs having SEQ ID NO: 1-12 were also tested on different cell lines which overexpress MYCN (Kelly, SKNBE2c, RH30, […] 1 and H69). The results are shown in Table 6 and confirm the selectivity and specificity of the inhibition effect of the PNAs on the product of protein translation of the MYCN gene.

Another series has as its system MYCN gene. The series can be described thus: QT-PCR, MYCN mRNA in Kelly cells. Details: mRNA Inhibition (%)(Kelly): concentration or dose not given beside the values. The settings on record: for mRNA inhibition (%): Table 1, PNA 1 μM, RNA extracted after 24 hours; for Kelly % mRNA: Table 6. Here is the method: For the purpose of assessing the ability of the oligonucleotides of the present invention to modulate the expression of the target genes, their ability to reduce the quantity of messenger RNA was analyzed using the Real-Time PCR technique.
For this purpose, use was made of 24-well plates, which were seeded with 5.0×10^4 cells with 0.3 ml of OPTI-MEM (GIBCO BRL) medium, 4% FBS and 2 mM L-glutammine (experiments in triplicate) per well.
The cells were incubated for 24 hours at 37° C., in an atmosphere containing 5% CO2 to permit adherence to the base of the wells.
Each oligonucleotide analyzed, except for the PNA oligonucleotides, was incubated beforehand with 2 μl of Lipofectamine 2000 (Invitrogen), with 0.3 mL of serum-free OPTI-MEM (GIBCO BRL) medium.
For each well, the oligonucleotides were analyzed at the following final concentrations: • the antisense oligonucleotides siRNA and siRNA gapmer (i.e. the oligonucleotides containing one or more monomers of chemically modified nucleic acids at the 3′ or 5′ end, while in the central portion they have monomers of nucleic acids that have not been modified or have been modified at the level of the phosphodiester bond as a phosphorothioate bond) were used at 200 nM; • the antisense oligonucleotides containing phosphorothioate DNA monomers, the RNA antigene oligonucleotides (agRNA) and the oligonucleotides containing DNA monomers and LNA monomers were used at 10 μM; • the morpholino oligonucleotides were used at a concentration of 1 μM, and • the PNA oligonucleotides were administered at a concentration of 1 μM.
The cells were treated with the oligonucleotides, adding FBS up to 4% 6 hours after administration of the same. After 24 hours the total RNA was extracted from each well and purified using the RNeasy Mini Kit (QIAGEN).
Assays were performed on 8 cell lines obtained from 5 different human tumours which are correlated with MYCN expression, i.e.: • as a neuroblastoma model use was made of the cell lines Kelly, IMR-32 (where the MYCN gene is amplified and superexpressed) and SKNBE2c and LAN1 (where the MYCN gene is amplified and superexpressed and the p53 gene is mutated); • as a rabdomiosarcoma model use was made of the cell line RH30, where the MYCN gene is amplified and superexpressed; • as a Wilms' tumour model use was made of the cell line WiT49, where the MYCN gene is amplified and superexpressed; • as a retinoblastoma model use was made of the cell line Y79, where the MYCN gene is amplified and superexpressed; and • as a model of small cell lung cancer use was made of the cell line H69 where the MYCN gene is amplified and superexpressed.
As a control, use was made of the same cell lines as listed above treated with sterile water instead of oligonucleotides. Each RNA sample was quantified (in duplicate) using a NanoDrop ND-1000 spectrophotometer (NanoDrop Technologies). The first strand of cDNA was produced using the cDNA Synthesis Kit for RT-PCR (Roche). For the cDNA synthesis reaction a total of 1 μg of RNA was used. For the real-time PCR, 10 ng of cDNA in a final volume of 20 μl was used with SYBR Green Master Mix 2× (Applied Biosystems) (3 identical experiments were conducted in triplicate). Two housekeeping genes were used as positive controls: GAPDH and beta-actin (ACTB).
The conditions of the QT-PCR reaction were: 10 min at 95° C., 20 sec at 95° C., and 30 sec at 60° C., for 50 cycles.
As far as the PNA oligonucleotides are concerned, the results regarding their ability to inhibit the transcription of the MYCN gene and proliferation of Kelly cells are shown in Table 1.
The oligonucleotides were tested in vitro (at a concentration of 2.5 μM) to determine their ability to inhibit the transcription of the gene they are directed against by measuring the levels of the gene messenger in cellular models in which the gene of interest is overexpressed. The methods used are the ones described in example 1. […]

Data on 12 substances can be found in US10752900B2, “Oligonucleotides for modulating gene expression and uses thereof” (BIOGENERA S.P.A., priority 2012, dated 2020).

Regarding “SEQ ID NO: 1: PNA ATGCCGGGCATGATCT against MYCN; subject of patent EP 1618195, control sequence used for comparison (all peptide nucleic acid (PNA)) [reference compound]”, in the series on H69, the “H69 % cell prol.” value was 77%. In addition, the “WiT49 % cell prol.” value with WiT49 came to 74%. In addition, in the series with MYCN gene, the “mRNA inhibition (%)” value came to 42% and the “Kelly % mRNA” value was found to be 48%.
Turning to “SEQ ID NO: 10: PNA antigene oligonucleotide CGGCCGCGGGCCGCCA directed against MYCN (PNA backbone, chemistry not fully specified)”, the “H69 % cell prol.” value in the series with H69 is 79%. Moreover, the “WiT49 % cell prol.” value in the series with WiT49 amounted to 70%. Further, in the series on MYCN gene, the “mRNA inhibition (%)” value is on record as 51% and the “Kelly % mRNA” value is recorded as 51%.
As for “SEQ ID NO: 12: PNA antigene oligonucleotide TGTCTGGACGCGCTGG directed against MYCN (all peptide nucleic acid (PNA))”, the “H69 % cell prol.” value in the series with H69 is recorded as 78%. Further, in the series with WiT49, the “WiT49 % cell prol.” value is reported as 73%. Also, in the series with MYCN gene, the “mRNA inhibition (%)” value was 47% and the “Kelly % mRNA” value worked out at 50%.
With “SEQ ID NO: 6: PNA antigene oligonucleotide TGGACGCGCTGGGTGG directed against MYCN (PNA backbone, chemistry not fully specified)”, the “H69 % cell prol.” value in the series with H69 is recorded as 69%. Also, in the series on WiT49, the “WiT49 % cell prol.” value came out at 65%. Also, in the series with MYCN gene, the “mRNA inhibition (%)” value was 60% and the “Kelly % mRNA” value was 60%.
Take “SEQ ID NO: 8: PNA antigene oligonucleotide GTCTGGACGCGCTGGG directed against MYCN (all peptide nucleic acid (PNA))”: the “H69 % cell prol.” value in the series with H69 was determined as 66%. In addition, in the series on WiT49, the “WiT49 % cell prol.” value is given as 62%. Further, in the series on MYCN gene, the “mRNA inhibition (%)” value was 54% and the “Kelly % mRNA” value was determined as 54%.
Consider “SEQ ID NO: 2: PNA antigene oligonucleotide GGGTGGATGCGGGGGG directed against MYCN (PNA backbone, chemistry not fully specified)”, for which the “H69 % cell prol.” value with H69 is 61%. Moreover, in the series with WiT49, the “WiT49 % cell prol.” value stood at 54%. Further, in the series with MYCN gene, the “mRNA inhibition (%)” value amounted to 75% and the “Kelly % mRNA” value is 75%.
On to “SEQ ID NO: 7: PNA antigene oligonucleotide CGCGCTGGGTGGATGC directed against MYCN (all peptide nucleic acid (PNA))”, for which the “H69 % cell prol.” value in the series with H69 came to 67%. In addition, in the series on WiT49, the “WiT49 % cell prol.” value is given as 60%. Also, in the series on MYCN gene, the “mRNA inhibition (%)” value was 58% and the “Kelly % mRNA” value came to 58%.
For “SEQ ID NO: 3: PNA antigene oligonucleotide GATGCGGGGGGCTCCT directed against MYCN (PNA backbone, chemistry not fully specified)”, the “H69 % cell prol.” value in the series with H69 is reported as 63%. Further, in the series with WiT49, the “WiT49 % cell prol.” value is listed as 57%. Further, in the series with MYCN gene, the “mRNA inhibition (%)” value stood at 68% and the “Kelly % mRNA” value worked out at 68%.
“SEQ ID NO: 11: PNA antigene oligonucleotide GGGAACTGTGTTGGAG directed against MYCN (PNA backbone, chemistry not fully specified)”: the “H69 % cell prol.” value in the series on H69 is 78%. The “WiT49 % cell prol.” value in the series with WiT49 is listed as 72%. In addition, in the series with MYCN gene, the “mRNA inhibition (%)” value came out at 48% and the “Kelly % mRNA” value amounted to 50%.
The matching figures for “SEQ ID NO: 4: PNA antigene oligonucleotide GTCGGCGGGAGGTAAG directed against MYCN (PNA backbone, chemistry not fully specified)”: 66%, 60%, 65% and 65%.
In the same order, the values of “SEQ ID NO: 9: PNA antigene oligonucleotide CCCTGCAGTCGGCGGG directed against MYCN (all peptide nucleic acid (PNA))” are 70%, 68%, 51% and 51%.
For the substance “SEQ ID NO: 5: PNA antigene oligonucleotide GCTGGGTGGATGCGGG directed against MYCN (PNA backbone, chemistry not fully specified)”, the “H69 % cell prol.” value in the series on H69 is given as 68%. In addition, the “WiT49 % cell prol.” value in the series with WiT49 came out at 63%. In addition, in the series with MYCN gene, the “mRNA inhibition (%)” value was 62% and the “Kelly % mRNA” value came out at 62%. Moreover, the “mRNA Inhibition (%)(Kelly)” value in the series with MYCN gene (Table 7, SEQ ID NO: 5 and guanine-group mutants) was determined as 62%.
